Source: US20240390328A1, “PHARMACEUTICAL COMPOSITION CONTAINING AS ACTIVE INGREDIENT COMPOUND CONJUGATED TO G4 STRUCTURES OF CORONAVIRUSES FOR PREVENTION OR TREATMENT OF CORONAVIRUS INFECTIOUS DISEASES” (priority 2020, published 2024)
Where two headings read alike, the source gives them in different places.

How the values were obtained:
[1] = test system: SARS-COV-2 RNA G4, position 1574 (NsP2); test: CD thermal melting analysis, G4 No. 4; format: binding; conditions: G4 No. 4, position 1574, NsP2; 15 μM RNA G4, 30 μM compound
Procedure: (§1) For melting, the samples were heated at 25 to 95° C. at 2° C./min with a data pitch of 0.5° C. CD melting analyses were performed with and without G4-binding compounds. The ratio of RNA: G4-binding compound was set to a molar ratio of 1:2. 15 μM RNA G4 was treated with 30 μM G4-binding compound and incubated at room temperature in a buffer comprising 10 mM Tris-HCl (pH 7.5) and 100 mM KCl for 30 minutes. Ellipticity was measured at 265 nm. Thereafter, data were normalized and plotted in OriginPro 2017 to calculate Tm values.
(§2) In addition, 15 μM RNA G4 was treated with 30 μM compound and incubated, and a CD thermal melting curve of RNA G4 (15 μM) was obtained in the presence or absence of the G4-binding compound. Furthermore, the effect of G4-binding compounds on the stability of SARS-COV-2 G4 was confirmed by measuring the difference in melting temperature (ΔTm). The results are illustrated in FIGS. 6A and 6B.

[2] = test system: SARS-COV-2 RNA G4, position 28903 (Nucleocapsid protein); test: CD thermal melting analysis, G4 No. 23; format: binding; conditions: G4 No. 23, position 28903, Nucleocapsid protein; 15 μM RNA G4, 30 μM compound
Procedure: as §1, §2

[3] = test system: SARS-COV-2 RNA G4, position 644 (NsP1); test: CD thermal melting analysis, G4 No. 2; format: binding; conditions: G4 No. 2, position 644, NsP1; 15 μM RNA G4, 30 μM compound
Procedure: as §1, §2

[4] = test system: HCoV-OC43; test: HCoV-OC43 dose response curve analysis, virion production (plaque assay), HCT-8 cells; format: cell-based; conditions: Betacoronavirus 1, OC43, 0.05 MOI, 72 hours after infection
[5] = test system: SARS-COV-2 RNA G4, position 15208 (NsP12); test: CD thermal melting analysis, G4 No. 13; format: binding; conditions: G4 No. 13, position 15208, NsP12; 15 μM RNA G4, 30 μM compound
Procedure: as §1, §2

[6] = test system: SARS-COV-2 RNA G4, position 22316 (Surface glycoprotein); test: CD thermal melting analysis, G4 No. 16; format: binding; conditions: G4 No. 16, position 22316, Surface glycoprotein; 15 μM RNA G4, 30 μM compound
Procedure: as §1, §2

[7] = test system: SARS-COV-2 RNA G4, position 24215 (Surface glycoprotein); test: CD thermal melting analysis, G4 No. 17; format: binding; conditions: G4 No. 17, position 24215, Surface glycoprotein; 15 μM RNA G4, 30 μM compound
Procedure: as §1, §2

[8] = test system: SARS-COV-2 RNA G4, position 28781 (Nucleocapsid protein); test: CD thermal melting analysis, G4 No. 22; format: binding; conditions: G4 No. 22, position 28781, Nucleocapsid protein; 15 μM RNA G4, 30 μM compound
Procedure: as §1, §2

[9] = test system: N1-WT-G4-3467 (Nsp3 G4); test: In-vitro transcription/translation (IVT) analysis, EYFP reporter western blot, N1-WT-G4-3467; format: biochemical, SARS-COV-2; conditions: N1-WT-G4-3467, compound at 15 to 50 μM
[10] = test system: SARS-COV-2; test: microbe, parasite or virus in culture; format: cell-based; conditions: Severe acute respiratory syndrome coronavirus 2; Vero cells, 0.0125 MOI, 24 hours; read-out: IC50, suppressing SARS-COV-2 infection (N protein expression)
[11] = test system: N1-WT-G4-353 (Nsp1 G4); test: In-vitro transcription/translation (IVT) analysis, EYFP reporter western blot, N1-WT-G4-353; format: biochemical, SARS-COV-2
[12] = test system: SARS-COV-2; test: microbe, parasite or virus in culture; format: cell-based; conditions: Severe acute respiratory syndrome coronavirus 2, Vero cells, read-out: IC50, virion production
[13] = test system: HEK293T cells; test: Cell viability analysis (EZ Cytox), HEK293T cells; format: cell-based, Human; conditions: up to 75 μM
Procedure: (§3) Human embryonic kidney (HEK293T) cells and Vero cells were maintained in high-glucose Dulbecco's Modified Eagle's Medium (DMEM) supplemented with 10% fetal bovine serum (FBS) and 1% penicillin-streptomycin, and cultured in a humidified incubator at 37° C. and 5% CO2.
(§4) Cytotoxicity was analyzed using an EZ Cytox assay kit (DogenBio, Korea). HEK293T and Vero cells were put into a 96-well plate at a density of 2×10^4 cells/well in a medium volume of 100 μl/well and cultured at 37° C. for 24 hours. After 24 hours, the cells were treated with the G4-binding compound at various concentrations (0.1, 0.5, 1, 2.5, 5.5, 7.5, 10, 25, 50, and 75 μM) and cultured at 37° C. for 24 hours or 48 hours. Cell viability (%) was calculated by measuring the absorbance value at 455 nm (Luminescence multi-mode microplate reader Synergy™ Neo2) and using the following Equation 1. All experiments were performed in triplicate, and cells untreated with the compound were used as a control. DMEM with the EZ Cytox reagent was used as a blank.
(§5) The toxicity of PDS and PhenDC3 was confirmed in HEK293T cells and Vero cells. The results are illustrated in FIGS. 7A to 7D.

[14] = test system: N1-Mut-G4-3467; format: biochemical, SARS-COV-2; conditions: N1-Mut-G4-3467, 5, 15, 25 and 50 μM
[15] = test system: Vero cells; test: Cell viability analysis (EZ Cytox), Vero cells; format: cell-based; conditions: up to 75 μM after 48 hours
Procedure: as §3, §4, §5

Structure (SMILES)	Tm in ° C. with compound [2] [°C]	ΔTm [2] [°C]	Tm in ° C. with compound [3] [°C]	ΔTm [3] [°C]	Tm in ° C. with compound [5] [°C]	ΔTm [5] [°C]	Tm in ° C. with compound [6] [°C]	ΔTm [6] [°C]	Tm in ° C. with compound [7] [°C]	ΔTm [7] [°C]	also measured
CN1CCC[C@H]1CCNC(=O)c1cn2c3c(c(N4CCC(c5cnccn5)C4)c(F)cc3c1=O)Oc1cc3ccccc3cc1-2 (stereo partly drawn) [CX-3543, 15-fluoro-N-[2-[(2S)-1-methylpyrrolidin-2-yl]ethyl]-18-oxo-14-(3-pyrazin-2-ylpyrrolidin-1-yl)-12-oxa-1-azapentacyclo [11.7.1.0^2,11.0^4,9.0^17,21]henicosa-2,4,6,8, 10, 13 (21), 14,16,19-nonaene-19-carboxamide]	63.45	6.34	53.32	5.59	63.87	6.7	49.56	1.28	57.16	1.74	Tm in ° C. with compound [1]: 53.43 °C; ΔTm [1]: 0.05 °C; IC50 [4]: 1.4 µM; Tm in ° C. with compound [8]: 82.9 °C; ΔTm [8]: 18.2 °C
NCCOc1cc(C(=O)Nc2cc(OCCN)c3ccccc3n2)nc(C(=O)Nc2cc(OCCN)c3ccccc3n2)c1 [PDS, 4-(2-aminoethoxy)-N2,N6-bis(4-(2-aminoethoxy)quinolin-2-yl)pyridine-2,6-dicarboxamide]	60.46	3.35	70.59	22.86	60.16	2.99	55.62	7.34	62.93	7.51	EYFP expression suppressed by [9]: 60%; IC50 [10]: 9.45 µM; EYFP expression reduced by ([11]; N1-WT-G4-353, compound at 50 μM): 65%; suppressing EYFP reporter expression ([11]; N1-WT-G4-353, concentrations less than 50 μM): not effective; IC50 ([12]; 24 hours after infection): 1.45 µM; IC50 ([12]; 48 hours after infection): 2.77 µM; cytotoxicity in HEK293T cells [13]: safe to use; EYFP expression, concentration-dependent suppression [14]: not suppressed; cytotoxicity in Vero cells [15]: no cytotoxicity was observed
